{
  "source": "paper PMC4076210",
  "about": "“Discovery of Novel AKT Inhibitors with Enhanced Anti-Tumor Effects in Combination with the MEK Inhibitor” (PLoS ONE, 2014)",
  "key": {"[1]": {"biological_target": "T1, CK2(h) (Homo sapiens, UniProt P68400)", "T1 construct": "purchased Millipore KinaseProfiler", "assay": "Kinase panel", "format": "biochemical"}, "[2]": {"biological_target": "T2, PDGFRβ(h) (Homo sapiens, UniProt P09619)", "T2 construct": "purchased Millipore KinaseProfiler", "T2 sequence (P09619 33-1106)": "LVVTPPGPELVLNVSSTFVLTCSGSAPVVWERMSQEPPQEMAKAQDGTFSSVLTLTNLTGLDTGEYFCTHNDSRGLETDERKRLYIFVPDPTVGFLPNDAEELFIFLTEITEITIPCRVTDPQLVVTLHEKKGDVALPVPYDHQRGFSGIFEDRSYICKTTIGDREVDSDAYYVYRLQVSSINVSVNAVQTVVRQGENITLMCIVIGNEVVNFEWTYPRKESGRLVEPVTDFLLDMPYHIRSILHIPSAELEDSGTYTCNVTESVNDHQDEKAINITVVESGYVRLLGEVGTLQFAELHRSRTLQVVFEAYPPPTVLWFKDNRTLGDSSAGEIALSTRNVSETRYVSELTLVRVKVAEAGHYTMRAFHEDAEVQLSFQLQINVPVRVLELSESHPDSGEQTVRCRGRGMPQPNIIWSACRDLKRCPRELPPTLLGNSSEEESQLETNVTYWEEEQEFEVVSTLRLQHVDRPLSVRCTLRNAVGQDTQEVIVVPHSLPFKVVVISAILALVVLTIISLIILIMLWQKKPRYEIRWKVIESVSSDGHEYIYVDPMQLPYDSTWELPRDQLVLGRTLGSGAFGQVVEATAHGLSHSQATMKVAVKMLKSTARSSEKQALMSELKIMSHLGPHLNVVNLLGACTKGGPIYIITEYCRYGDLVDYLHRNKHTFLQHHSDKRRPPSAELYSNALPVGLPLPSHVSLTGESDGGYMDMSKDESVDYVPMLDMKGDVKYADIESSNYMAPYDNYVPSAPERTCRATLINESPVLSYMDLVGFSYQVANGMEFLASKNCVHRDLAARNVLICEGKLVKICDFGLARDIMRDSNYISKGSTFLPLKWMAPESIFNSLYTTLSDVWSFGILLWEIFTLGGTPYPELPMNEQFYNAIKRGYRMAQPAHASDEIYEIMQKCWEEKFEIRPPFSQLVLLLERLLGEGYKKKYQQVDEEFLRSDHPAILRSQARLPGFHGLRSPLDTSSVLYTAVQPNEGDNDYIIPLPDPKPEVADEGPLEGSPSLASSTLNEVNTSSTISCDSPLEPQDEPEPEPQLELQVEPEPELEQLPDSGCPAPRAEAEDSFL", "assay": "Kinase panel", "format": "biochemical"}, "[3]": {"biological_target": "T3, FGFR2(h) (Homo sapiens, UniProt P21802)", "T3 construct": "purchased Millipore KinaseProfiler", "T3 sequence (P21802 22-821)": "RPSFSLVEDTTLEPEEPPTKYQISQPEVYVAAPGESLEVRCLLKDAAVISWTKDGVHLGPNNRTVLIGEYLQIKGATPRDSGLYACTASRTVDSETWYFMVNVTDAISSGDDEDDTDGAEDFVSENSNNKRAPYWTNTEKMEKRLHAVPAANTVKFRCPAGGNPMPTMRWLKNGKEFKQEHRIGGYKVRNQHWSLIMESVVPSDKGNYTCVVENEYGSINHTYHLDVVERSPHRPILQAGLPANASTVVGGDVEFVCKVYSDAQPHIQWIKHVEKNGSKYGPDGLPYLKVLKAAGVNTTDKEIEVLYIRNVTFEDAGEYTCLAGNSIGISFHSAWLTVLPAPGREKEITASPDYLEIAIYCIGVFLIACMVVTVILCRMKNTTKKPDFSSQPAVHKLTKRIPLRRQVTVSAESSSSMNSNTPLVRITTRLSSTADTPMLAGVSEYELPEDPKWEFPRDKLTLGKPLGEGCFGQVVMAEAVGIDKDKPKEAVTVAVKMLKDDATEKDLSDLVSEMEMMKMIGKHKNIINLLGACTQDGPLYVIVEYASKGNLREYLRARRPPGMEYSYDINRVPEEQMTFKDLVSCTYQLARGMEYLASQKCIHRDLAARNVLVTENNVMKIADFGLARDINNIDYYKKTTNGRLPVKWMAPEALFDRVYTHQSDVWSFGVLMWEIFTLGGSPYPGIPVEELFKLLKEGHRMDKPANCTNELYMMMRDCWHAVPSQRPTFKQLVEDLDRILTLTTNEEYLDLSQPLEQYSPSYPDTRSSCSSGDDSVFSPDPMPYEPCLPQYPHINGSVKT", "assay": "Kinase panel", "format": "biochemical"}, "[4]": {"biological_target": "T4, mTOR(h) (Homo sapiens, UniProt P42345)", "T4 construct": "purchased Millipore KinaseProfiler", "assay": "Kinase panel", "format": "biochemical"}, "[5]": {"biological_target": "T5, Lck(h) (Homo sapiens, UniProt P06239)", "T5 construct": "purchased Millipore KinaseProfiler", "assay": "Kinase panel", "format": "biochemical"}, "[6]": {"biological_target": "T6, JAK3(h) (Homo sapiens, UniProt P52333)", "T6 construct": "purchased Millipore KinaseProfiler", "T6 sequence (P52333 1-1124)": "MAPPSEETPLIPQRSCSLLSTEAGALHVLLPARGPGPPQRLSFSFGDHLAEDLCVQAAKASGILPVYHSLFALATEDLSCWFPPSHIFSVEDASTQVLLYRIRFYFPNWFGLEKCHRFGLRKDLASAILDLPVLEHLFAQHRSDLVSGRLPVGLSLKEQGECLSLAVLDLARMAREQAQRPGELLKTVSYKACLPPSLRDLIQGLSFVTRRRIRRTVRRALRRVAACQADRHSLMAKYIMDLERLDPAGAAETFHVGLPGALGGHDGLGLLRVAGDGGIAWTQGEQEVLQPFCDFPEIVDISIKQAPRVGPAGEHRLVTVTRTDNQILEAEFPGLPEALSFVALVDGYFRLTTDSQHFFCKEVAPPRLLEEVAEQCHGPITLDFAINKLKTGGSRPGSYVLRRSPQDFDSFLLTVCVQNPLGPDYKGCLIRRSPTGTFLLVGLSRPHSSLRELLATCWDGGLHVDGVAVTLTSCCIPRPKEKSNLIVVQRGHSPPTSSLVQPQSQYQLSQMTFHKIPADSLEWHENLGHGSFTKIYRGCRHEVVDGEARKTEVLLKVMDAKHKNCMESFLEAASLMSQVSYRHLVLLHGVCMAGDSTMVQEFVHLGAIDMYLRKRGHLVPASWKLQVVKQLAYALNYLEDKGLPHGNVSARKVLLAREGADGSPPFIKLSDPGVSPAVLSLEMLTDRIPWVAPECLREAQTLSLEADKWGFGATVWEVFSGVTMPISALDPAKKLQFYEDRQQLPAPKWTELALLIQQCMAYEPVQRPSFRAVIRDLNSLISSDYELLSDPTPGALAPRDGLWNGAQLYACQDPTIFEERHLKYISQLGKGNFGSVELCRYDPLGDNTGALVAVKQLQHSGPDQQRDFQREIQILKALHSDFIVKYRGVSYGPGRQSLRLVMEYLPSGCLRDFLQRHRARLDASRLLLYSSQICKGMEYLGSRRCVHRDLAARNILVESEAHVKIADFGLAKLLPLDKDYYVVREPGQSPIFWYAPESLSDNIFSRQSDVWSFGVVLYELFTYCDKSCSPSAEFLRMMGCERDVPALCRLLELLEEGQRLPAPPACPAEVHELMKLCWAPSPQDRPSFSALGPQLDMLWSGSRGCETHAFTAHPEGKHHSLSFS", "assay": "Kinase panel", "format": "biochemical"}, "[7]": {"biological_target": "T7, p70S6K(h) (Homo sapiens, UniProt P23443)", "T7 construct": "purchased Millipore KinaseProfiler", "assay": "Kinase panel", "format": "biochemical"}, "[8]": {"biological_target": "RSK1 (Homo sapiens, UniProt Q15418)", "sequence (Q15418 whole entry)": "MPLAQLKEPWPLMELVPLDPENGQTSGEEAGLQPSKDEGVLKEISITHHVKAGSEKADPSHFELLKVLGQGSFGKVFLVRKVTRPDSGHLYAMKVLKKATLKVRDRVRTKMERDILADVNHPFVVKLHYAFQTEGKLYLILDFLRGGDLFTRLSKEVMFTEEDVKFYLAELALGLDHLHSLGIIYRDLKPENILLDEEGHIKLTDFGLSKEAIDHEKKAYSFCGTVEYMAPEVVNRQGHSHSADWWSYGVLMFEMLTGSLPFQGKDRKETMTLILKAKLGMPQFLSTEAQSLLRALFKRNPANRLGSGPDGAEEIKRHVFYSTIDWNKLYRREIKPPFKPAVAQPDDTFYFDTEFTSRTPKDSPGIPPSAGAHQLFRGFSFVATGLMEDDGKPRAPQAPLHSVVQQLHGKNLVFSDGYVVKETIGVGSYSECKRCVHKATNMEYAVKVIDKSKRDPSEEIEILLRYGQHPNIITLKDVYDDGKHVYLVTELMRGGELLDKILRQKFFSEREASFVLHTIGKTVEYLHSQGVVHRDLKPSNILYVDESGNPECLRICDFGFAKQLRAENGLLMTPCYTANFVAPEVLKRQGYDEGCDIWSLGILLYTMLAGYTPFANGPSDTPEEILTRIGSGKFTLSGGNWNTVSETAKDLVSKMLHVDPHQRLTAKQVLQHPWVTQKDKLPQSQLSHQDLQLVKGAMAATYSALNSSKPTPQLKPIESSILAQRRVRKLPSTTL", "assay": "Kinase IC50 assay", "format": "biochemical"}, "[9]": {"biological_target": "T8, Rsk1(h) (Homo sapiens, UniProt Q15418)", "T8 construct": "purchased Millipore KinaseProfiler", "assay": "Kinase panel", "format": "biochemical"}, "[10]": {"biological_target": "T9, TAO3(h) (Homo sapiens, UniProt Q9H2K8)", "T9 construct": "purchased Millipore KinaseProfiler", "T9 sequence (Q9H2K8 1-898)": "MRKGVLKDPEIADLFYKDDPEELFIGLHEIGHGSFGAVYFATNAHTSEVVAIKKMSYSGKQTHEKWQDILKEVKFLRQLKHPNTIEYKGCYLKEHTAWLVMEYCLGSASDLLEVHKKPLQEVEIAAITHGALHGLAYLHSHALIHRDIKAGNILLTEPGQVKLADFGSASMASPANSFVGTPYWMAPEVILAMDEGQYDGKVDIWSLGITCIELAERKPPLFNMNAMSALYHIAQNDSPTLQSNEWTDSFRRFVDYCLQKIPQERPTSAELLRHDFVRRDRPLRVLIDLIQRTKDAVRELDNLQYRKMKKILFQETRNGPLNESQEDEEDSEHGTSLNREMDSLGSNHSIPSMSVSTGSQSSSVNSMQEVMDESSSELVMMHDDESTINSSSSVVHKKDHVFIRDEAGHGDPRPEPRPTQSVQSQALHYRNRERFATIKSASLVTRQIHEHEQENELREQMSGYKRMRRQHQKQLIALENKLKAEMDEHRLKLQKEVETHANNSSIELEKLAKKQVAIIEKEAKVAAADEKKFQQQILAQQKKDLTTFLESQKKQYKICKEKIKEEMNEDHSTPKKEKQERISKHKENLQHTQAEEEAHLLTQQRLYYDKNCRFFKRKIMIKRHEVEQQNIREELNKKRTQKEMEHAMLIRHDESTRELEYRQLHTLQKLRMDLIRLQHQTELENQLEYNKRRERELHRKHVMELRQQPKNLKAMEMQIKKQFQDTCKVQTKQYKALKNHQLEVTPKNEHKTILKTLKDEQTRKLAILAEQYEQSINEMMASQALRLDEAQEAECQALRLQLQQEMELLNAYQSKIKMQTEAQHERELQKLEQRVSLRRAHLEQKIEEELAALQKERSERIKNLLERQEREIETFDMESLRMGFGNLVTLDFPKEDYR", "assay": "Kinase panel", "format": "biochemical"}, "[11]": {"assay": "Blood glucose after single oral dose", "format": "in vivo, mouse", "protocol": "Blood glucose levels were determined from tail vein puncture in mice using a handheld glucometer. Plasma Insulin levels were using the Rat Ultrasensitive Insulin ELISA kit (Crystal Chem Inc)."}, "[12]": {"biological_target": "T10, FGFR2(N549H)(h) (Homo sapiens, UniProt P21802, N549H)", "T10 construct": "purchased Millipore KinaseProfiler", "T10 sequence (P21802 22-821 N549H)": "as the sequence (P21802 22-821) above, with N528H counted along it", "assay": "Kinase panel", "format": "biochemical"}, "[13]": {"biological_target": "T11, cKit(D816H)(h) (Homo sapiens, UniProt P10721, D816H)", "T11 construct": "purchased Millipore KinaseProfiler", "T11 sequence (P10721 26-976 D816H)": "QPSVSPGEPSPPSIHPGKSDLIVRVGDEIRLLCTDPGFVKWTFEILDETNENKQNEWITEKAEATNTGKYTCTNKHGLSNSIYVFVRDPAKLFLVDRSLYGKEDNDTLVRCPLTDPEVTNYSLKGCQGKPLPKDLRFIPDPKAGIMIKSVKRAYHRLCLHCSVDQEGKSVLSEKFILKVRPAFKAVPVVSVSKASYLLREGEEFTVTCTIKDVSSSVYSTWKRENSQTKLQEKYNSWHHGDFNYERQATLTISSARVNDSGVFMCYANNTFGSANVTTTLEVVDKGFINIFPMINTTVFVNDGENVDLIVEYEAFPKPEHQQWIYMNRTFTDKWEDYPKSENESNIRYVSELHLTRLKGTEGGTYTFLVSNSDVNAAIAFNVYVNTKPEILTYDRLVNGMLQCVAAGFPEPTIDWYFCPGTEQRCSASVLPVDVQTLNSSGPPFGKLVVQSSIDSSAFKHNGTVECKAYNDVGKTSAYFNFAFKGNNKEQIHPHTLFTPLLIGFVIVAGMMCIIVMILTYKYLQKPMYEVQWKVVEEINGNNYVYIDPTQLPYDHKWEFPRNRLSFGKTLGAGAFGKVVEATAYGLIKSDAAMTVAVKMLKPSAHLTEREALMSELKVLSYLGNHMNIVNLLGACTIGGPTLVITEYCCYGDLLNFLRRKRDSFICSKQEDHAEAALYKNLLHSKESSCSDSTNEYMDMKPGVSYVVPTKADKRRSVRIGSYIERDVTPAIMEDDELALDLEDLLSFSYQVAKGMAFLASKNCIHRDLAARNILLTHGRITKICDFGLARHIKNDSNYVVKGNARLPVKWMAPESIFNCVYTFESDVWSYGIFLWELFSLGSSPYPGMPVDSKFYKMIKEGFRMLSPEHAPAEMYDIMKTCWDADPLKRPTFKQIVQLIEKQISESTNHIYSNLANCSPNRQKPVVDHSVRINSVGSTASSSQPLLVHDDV", "assay": "Kinase panel", "format": "biochemical"}},
  "note": "Like-named read-outs stand apart in the source and are kept apart here.",
  "data": [
    {"smiles": "Cn1ncc(Cl)c1-c1cc(C(=O)N[C@H](CN)Cc2ccc(F)c(F)c2)oc1Cl", "note": "[GSK2141795]", "values": [
      {"measurement": "inhibition at 0.5 µM", "setting": "[1]; 0.5 µM, read-out: % Inhibition", "value": 4, "unit": "%"},
      {"measurement": "inhibition at 10 µM", "setting": "[1]; 10 µM, read-out: % Inhibition", "value": 9, "unit": "%"},
      {"measurement": "inhibition at 0.5 µM", "setting": "[2]; 0.5 µM, read-out: % Inhibition", "value": -7, "unit": "%"},
      {"measurement": "inhibition at 10 µM", "setting": "[2]; 10 µM, read-out: % Inhibition", "value": -4, "unit": "%"},
      {"measurement": "inhibition at 0.5 µM", "setting": "[3]; 0.5 µM, read-out: % Inhibition", "value": -8, "unit": "%"},
      {"measurement": "inhibition at 10 µM", "setting": "[3]; 10 µM, read-out: % Inhibition", "value": 2, "unit": "%"},
      {"measurement": "inhibition at 0.5 µM", "setting": "[4]; 0.5 µM, read-out: % Inhibition", "value": -16, "unit": "%"},
      {"measurement": "inhibition at 10 µM", "setting": "[4]; 10 µM, read-out: % Inhibition", "value": -4, "unit": "%"},
      {"measurement": "inhibition at 0.5 µM", "setting": "[5]; 0.5 µM, read-out: % Inhibition", "value": -18, "unit": "%"},
      {"measurement": "inhibition at 10 µM", "setting": "[5]; 10 µM, read-out: % Inhibition", "value": 21, "unit": "%"},
      {"measurement": "inhibition at 0.5 µM", "setting": "[6]; 0.5 µM, read-out: % Inhibition", "value": -6, "unit": "%"},
      {"measurement": "inhibition at 10 µM", "setting": "[6]; 10 µM, read-out: % Inhibition", "value": -14, "unit": "%"},
      {"measurement": "inhibition at 0.5 µM", "setting": "[7]; 0.5 µM, read-out: % Inhibition", "value": 88, "unit": "%"},
      {"measurement": "inhibition at 10 µM", "setting": "[7]; 10 µM, read-out: % Inhibition", "value": 98, "unit": "%"},
      {"measurement": "IC50", "setting": "[8]", "value": 200, "unit": "nM"},
      {"measurement": "inhibition at 0.5 µM", "setting": "[9]; 0.5 µM, read-out: % Inhibition", "value": 44, "unit": "%"},
      {"measurement": "inhibition at 10 µM", "setting": "[9]; 10 µM, read-out: % Inhibition", "value": 91, "unit": "%"},
      {"measurement": "inhibition at 0.5 µM", "setting": "[10]; 0.5 µM, read-out: % Inhibition", "value": -16, "unit": "%"},
      {"measurement": "inhibition at 10 µM", "setting": "[10]; 10 µM, read-out: % Inhibition", "value": -4, "unit": "%"},
      {"measurement": "blood glucose level", "setting": "[11]; maximal tolerated dose of 30 mg/kg, daily", "value": "200 to 300", "unit": "mg/dL"},
      {"measurement": "time for glucose to return to normal", "setting": "[11]; single 30 mg/kg dose", "value": "≤ 8", "unit": "h"},
      {"measurement": "blood glucose level", "setting": "[11]; single 30 mg/kg dose, 2 h post dosing", "value": 200, "unit": "mg/dL"},
      {"measurement": "inhibition at 0.5 µM", "setting": "[12]; 0.5 µM, read-out: % Inhibition", "value": -2, "unit": "%"},
      {"measurement": "inhibition at 10 µM", "setting": "[12]; 10 µM, read-out: % Inhibition", "value": -5, "unit": "%"},
      {"measurement": "inhibition at 0.5 µM", "setting": "[13]; 0.5 µM, read-out: % Inhibition", "value": -15, "unit": "%"},
      {"measurement": "inhibition at 10 µM", "setting": "[13]; 10 µM, read-out: % Inhibition", "value": 43, "unit": "%"}
    ]},
    {"smiles": "Cn1ncc(Cl)c1-c1cc(C(=O)N[C@H](CN)Cc2cccc(F)c2)sc1Cl", "note": "[GSK2110183]", "values": [
      {"measurement": "inhibition at 0.5 µM", "setting": "[1]", "value": 3, "unit": "%"},
      {"measurement": "inhibition at 10 µM", "setting": "[1]", "value": 8, "unit": "%"},
      {"measurement": "inhibition at 0.5 µM", "setting": "[2]", "value": 2, "unit": "%"},
      {"measurement": "inhibition at 10 µM", "setting": "[2]", "value": 5, "unit": "%"},
      {"measurement": "inhibition at 0.5 µM", "setting": "[3]", "value": 0, "unit": "%"},
      {"measurement": "inhibition at 10 µM", "setting": "[3]", "value": -2, "unit": "%"},
      {"measurement": "inhibition at 0.5 µM", "setting": "[4]", "value": 17, "unit": "%"},
      {"measurement": "inhibition at 10 µM", "setting": "[4]", "value": -9, "unit": "%"},
      {"measurement": "inhibition at 0.5 µM", "setting": "[5]", "value": 7, "unit": "%"},
      {"measurement": "inhibition at 10 µM", "setting": "[5]", "value": 35, "unit": "%"},
      {"measurement": "inhibition at 0.5 µM", "setting": "[6]", "value": 6, "unit": "%"},
      {"measurement": "inhibition at 10 µM", "setting": "[6]", "value": -3, "unit": "%"},
      {"measurement": "inhibition at 0.5 µM", "setting": "[7]", "value": 78, "unit": "%"},
      {"measurement": "inhibition at 10 µM", "setting": "[7]", "value": 97, "unit": "%"},
      {"measurement": "IC50", "setting": "[8]", "value": 316, "unit": "nM"},
      {"measurement": "inhibition at 0.5 µM", "setting": "[9]", "value": 49, "unit": "%"},
      {"measurement": "inhibition at 10 µM", "setting": "[9]", "value": 89, "unit": "%"},
      {"measurement": "inhibition at 0.5 µM", "setting": "[10]", "value": -2, "unit": "%"},
      {"measurement": "inhibition at 10 µM", "setting": "[10]", "value": 24, "unit": "%"},
      {"measurement": "time for blood glucose to return to normal levels", "setting": "[11]; 100 mg/kg single oral dose", "value": "≤ 8", "unit": "h"},
      {"measurement": "blood glucose level", "setting": "[11]; 100 mg/kg single oral dose, 2 h post dosing", "value": 211, "unit": "mg/dL"},
      {"measurement": "inhibition at 0.5 µM", "setting": "[12]", "value": -1, "unit": "%"},
      {"measurement": "inhibition at 10 µM", "setting": "[12]", "value": -1, "unit": "%"},
      {"measurement": "inhibition at 0.5 µM", "setting": "[13]", "value": -6, "unit": "%"},
      {"measurement": "inhibition at 10 µM", "setting": "[13]", "value": -3, "unit": "%"}
    ]}
  ]
}
